Experimental data published in patent US20230075368A1, “IDENTIFICATION OF AN EGFR-BIN3 PATHWAY THAT ACTIVELY SUPPRESSES INVASION AND REDUCES TUMOR SIZE IN GLIOBLASTOMA” (The United States Govemment as represented by the …, priority 2020, published 2023).

What was measured:
GBM12, GBM6, and GBM22 = assay: Bromodeoxyuridine cell proliferation assay; format: cell-based, human; conditions: 48 hours
Method: Cell proliferation was assessed using the bromodeoxyuridine (BrdU) cell proliferation enzyme-linked immunosorbent assay kit (Abcam, Cambridge, United Kingdom) according to the manufacturer's instructions.

EGR1 = EGR1 levels (qPCR, Western blot) and EGR1 promoter luciferase assay; format: cell-based, human
Method: Whole protein extracts from cells or tumor tissues were analyzed by western blot as previously described (Altieri et al. (2015) Surg. Technol. Int 27: 297-302). Mayo PDX cells were serum starved overnight. Following treatment for specific time, cells were harvested and lysed. The human glioblastoma tissues were ground in liquid nitrogen and then were lysed. EGFR (06-847) antibody was from Millipore. DOCK7 was from Proteintech (Rosemont, Ill.). pEGFR (2236), STAT3 (12640), pSTAT3 (9145), cdc42(4376), and RhoA (4695) antibodies were from Cell Signaling Technology (Danvers, Mass.). TGFα antibody was from R&D system. BIN3 (sc-514396) and (3-Actin (sc-47778) were from Santa Cruz Biotechnology (Dallas, Tex.).
Total RNA from cells was extracted by TRIzol Reagent (Ambion). First-strand cDNA and PCR was performed as described previously (Altieri et al. (2015) Surg. Technol. Int. 27: 297-302). The expression of each gene was normalized to GAPDH as a reference. The following primers were used. BIN3, 5′-[…]-3′ (SEQ ID NO:5) and 5′-[…]-3′ (SEQ ID NO:6); GAPDH, 5′-[…]-3′ (SEQ ID NO:7) and 5′-TGATG-[…]-3′ (SEQ ID NO:8).
Cells were plated in 48 well dishes to 70%-80% confluence followed by transfection with EGR1 promoter plasmid or empty plasmid using lipofectamine 2000. […] Firefly luciferase activity was measured in a luminometer and normalized on the basis of Renilla luciferase activity.

RhoA = RhoA pull down assay (RhoA-GTP); format: cell-based, human; conditions: 24 hours, GBM12 and GBM6
Method: (§1) The amount of GTP-bound RhoA and Cdc42 were measured using RhoA and Cdc42 pull down assay kit (Cell Signaling) according to the protocol provided by the manufacturer. Briefly, cell lysates were incubated with either glutathione S-transferase (GST)-Rhotekin-RBD or GST-PAK-PBD beads 4° C. for 1 hour to pull down GTP-bound RhoA or Cdc42. Beads were washed four times in washing buffer and re-suspended in lysis buffer. RhoA-GTP and Cdc42-GTP were detected by Western blot using RhoA and Cdc42 antibodies.

CDC42 = assay: Cdc42 pull down assay (CDC42-GTP); format: cell-based, human; conditions: 24 hours, GBM12 and GBM6
Method: as §1

[1] = tested on: GBM12 mouse intracranial tumors; assay: Exogenous EGF infusion into GBM12 intracranial tumors; format: in vivo, mice; conditions: EGF infused into lateral ventricles by miniosmotic pump
Method: 4 to 6 weeks old female athymic nude mice were purchased from Charles River Laboratories. Mayo PDXs were injected into the right corpus striatum of the brains of 6-8 week-old nude mice using a stereotactic frame. […] Kaplan-Maier survival curves were calculated using GraphPad Prism 7.0 software. Alzet Osmotic pumps were installed for brain delivery of EGF or vehicle in tumor bearing mice. To monitor the mice with orthotropic xenografts, MRI was performed at the Mouse MRI Core, Advanced Imaging Research Center, at UT Southwestern.
Next, the impact of EGFR ligand on GBM invasion was examined in an orthotopic mouse model. To induce ligand activation of EGFR in vivo, ligand to EGFR-expressing tumors were provided by generating an autocrine loop or by exogenous infusion of ligand. In the autocrine loop experiment, ligand for EGFRwt is provided by the same cells that express the EGFR. Autocrine loops involving EGFR and its ligands are well described in GBM (Ramnarain et al. (2006) Cancer Res. 66: 867-874; Tang et al. (1997) J. Neurooncol. 35: 303-314). […]
Western blot analysis of TGFα, pEGFR, EGFR, and BIN3 in PDXs stably transfected with empty (GBM12V, GBM6V, GBM22V) or TGFα expressing vector (GBM12TGFα, GBM6TGFα, GBM22TGFα) is shown in FIG. 12A. […] Quantitative analysis of HNA positive cells in mouse tumor tissue sections. […]

## C[C@@H]1CCN(C(=O)CC#N)C[C@@H]1N(C)c1ncnc2[nH]ccc12 [tofacitinib]
GBM12, GBM6, and GBM22; tofacitinib 1 μM
  proliferation (BrdU incorporation): induced proliferation
EGR1; tofacitinib, Western blot 4 hours, luciferase 2 and 24 hours
  EGR1 levels and activity: induces EGR1 levels and activity

## EGF: Recombinant human EGF (AF-100) from Peprotech; EGFR ligand
GBM12, GBM6, and GBM22; EGF 50 ng/ml
  proliferation (BrdU incorporation): induces proliferation
EGR1; EGF 50 ng/ml, GBM12 and GBM6
  EGR1 mRNA, protein and transcriptional activity: upregulation of EGR1 was confirmed
RhoA; EGF 50 ng/ml
  RhoA activity: decreases the activity
CDC42; EGF 50 ng/ml
  CDC42 activity: decreases the activity
[1]
  tumor size (MRI): smaller tumors
[1]; H&E, SMI-31, HNA staining
  tumor invasiveness: noninvasive

## HGF: the ligand for Met
RhoA; HGF
  RhoA activity: increase in RhoA activity
CDC42; HGF 20 ng/ml
  CDC42 activity: increase of CDC42 activity was not detected
